Measured values taken from patent US6482921B1, “Uridyl peptide antibiotic (UPA) derivatives, their synthesis and use” (Essential Therapeutics, Inc., priority 1999, dated 2002).
≈ marks a conversion by molar mass, not a printed value.

Columns and labels:
Type in all cases: cell-based
[1] = tested on: Pseudomonas aeruginosa PAM 1154; assay: MIC broth microdilution, P. aeruginosa PAM 1154 (OprM::Hg); conditions: P. aeruginosa PAM 1154 OprM::Hg
[2] = tested on: Escherichia Coli MC 4100; assay: MIC broth microdilution, E. coli MC 4100 (wild type); conditions: E. coli MC 4100
[3] = tested on: Escherichia Coli MC 4100 AcrAB UPA3r; assay: MIC broth microdilution, E. coli MC 4100 AcrAB UPA3r (ΔAcrAB, UPA resistant); conditions: E. coli AcrAB UPA3^r
[4] = tested on: Pasteurella multocida pm002; assay: MIC broth microdilution, P. multocida pm002 (wild type)
[5] = tested on: Escherichia Coli MC 4100 AcrAB; assay: MIC broth microdilution, E. coli MC 4100 AcrAB (ΔAcrAB); conditions: E. coli AcrAB
[6] = tested on: Staphylococcus aureus ATCC 29213; assay: MIC broth microdilution, S. aureus ATCC 29213 (wild type); conditions: S. aureus ATCC 29213
[7] = tested on: Pseudomonas aeruginosa PAM 1323; assay: MIC broth microdilution, P. aeruginosa PAM 1323 (medium level UPA resistance)
Experimental: Compounds were tested against several panels of bacteria. In a first panel, Table 3, several strains of Pseudomonas aeruginosa, Escherichia coli and Staphylococcus aureus were employed as the target bacteria.
For the bacteria in Table 3, the assay was performed in Mueller-Hinton Broth (MHB) with a final bacterial inoculum of 5×10^5 CFU/ml and a final volume of 100 μl. Control drugs, including imipenem and pacidimycin 4, and the test compounds were prepared at a concentration which was twice the desired final concentration (256 μg/ml). Dilution of the controls and the test compounds was accomplished directly on the test plates by serial 2-fold dilution using a multi-channel pipette. Both a positive and a negative growth control was included in each plate.
The bacterial inocula were prepared as follows. Bacterial strains were grown overnight at 35° C. in MHB. […] The culture was then diluted 1:10 and allowed to grow for an additional one hour at 35° C. in a shaking incubator. The inocula were then prepared by diluting the early log phase (one hour) cultures 1:2000 with fresh MHB. A volume of 50 μl of the inocula was added to each well, resulting in an inoculum of approximately 5×10^5 CFU/ml. The exact inocula were determined by putting 10 μl of 10-fold serial dilution of the bacterial suspensions onto TSA. After overnight incubation at 35° C., colony-forming units were counted manually.
The microtiter plates were incubated for 20 hours at 35° C. and were then read using a microtiterplate reader (Molecular Devices) at 650 nm as well as being visually observed using a microtiterplate reading mirror.

[8] = tested on: Staphylococcus aureus 8325-4; assay: MIC broth microdilution, S. aureus 8325-4 (wild type); conditions: S. aureus 8325-4
[9] = tested on: Pseudomonas aeruginosa PAM 1020; assay: MIC broth microdilution, P. aeruginosa PAM 1020 (wild type); conditions: P. aeruginosa PAM 1020
[10] = tested on: Pseudomonas aeruginosa PAM 1135; assay: MIC broth microdilution, P. aeruginosa PAM 1135 (high level UPA resistance); conditions: P. aeruginosa PAM 1135 UPA1^r

Compound | MIC (μg/ml) Broth microdilution [1] | MIC (μg/ml) Broth microdilution [2] | MIC (μg/ml) Broth microdilution [3] | MIC (μg/ml) Broth microdilution [4] | MIC (μg/ml) Broth microdilution [5] | MIC (μg/ml) Broth microdilution [6] | MIC (μg/ml) Broth microdilution [7] | MIC (μg/ml) Broth microdilution [8] | MIC (μg/ml) Broth microdilution [9] | MIC (μg/ml) Broth microdilution [10]
1-[5′-[(2S,3S)-N^2-[N-[[(1S)-1-Carboxy-2-indol-3-ylethyl]carbamoyl]-L-alanyl]-N^3-L-3-hydroxyphenylalanyl-N^3-methyl-2,3-diaminobutyramidol-3′,5′-dideoxy-α-L-arabinofuranosyl]uracil [Compound 103] | 8 µg/mL | 512 µg/mL | 32 µg/mL | 256 µg/mL | 2 µg/mL | 512 µg/mL | 512 µg/mL | 256 µg/mL | 16 µg/mL | >512 µg/mL
1-[5′-[(2S,3S)-N^3-L-Alanyl-N^2-[(2R)-2-benzyl-N-[(1S)-1-carboxy-2-indol-3-ylethyl]succinimoyl]-N^3-methyl-2,3-diaminobutyramido]-3′,5′-dideoxy-α-L-arabinofuranosyl]uracil [Compound 154] | 8 µg/mL | >512 µg/mL | 128 µg/mL | >512 µg/mL | 8 µg/mL | >512 µg/mL | >512 µg/mL | >512 µg/mL | 64 µg/mL | >512 µg/mL
1-[5′-[(2S,3S)-N^3-L-Alanyl-N^2-[N-([(1S)-1-carboxy-phenethyl]carbamoyl]-L-leucinyl]-N^3-methyl-2,3-diaminobutyramido]-3′,5′-dideoxy-α-L-arabinofuranosyl]uracil [Compound 166] | >512 µg/mL | >512 µg/mL | 256 µg/mL | 512 µg/mL | 16 µg/mL | >512 µg/mL | >512 µg/mL | >512 µg/mL | >512 µg/mL | >512 µg/mL
1-[5′[(2S,3S)-N^2-[N-[[(1S)-1-Carboxy-4-hydroxyphenethyl]carbamoyl]-L-4-fluorophenylalanyl)-N^3-L-phenylalanyl-N^3-methyl-2,3-diaminobutyramido]-3′,5′-dideoxy-β-L-arabinofuranosyl]uracil [Compound 106] | 64 µg/mL | 512 µg/mL | 512 µg/mL | 512 µg/mL | 8 µg/mL | >512 µg/mL | 256 µg/mL | >512 µg/mL | 32 µg/mL | 256 µg/mL
CC(N)C(=O)N(C)C(C)C(NC(=O)C(Cc1ccc(F)cc1)NC(=O)NC(C(=O)O)c1ccccc1)C(=O)NCC1CC(O)C(n2ccc(=O)[nH]c2=O)O1 (mixture of isomers) [Compound 141, 1-[5′-[(2S,3S)-N^3-L-Alanyl-N^2-[N-[[α(R,S)-1-carboxy-phenmethyl]carbamoyl]-L-4-fluorophenylalanyl]-N^3-methyl-2,3-diaminobutyramido]-3′,5′-dideoxy-α-L-arabinofuranosyl]uracil] | 512 µg/mL | >512 µg/mL | >512 µg/mL | >512 µg/mL | 16 µg/mL | >512 µg/mL | >512 µg/mL | >512 µg/mL | >512 µg/mL | >512 µg/mL
CC(N)C(=O)N(C)C(C)C(NC(=O)C(Cc1ccc(F)cc1)NC(=O)NC(C(=O)O)c1ccccc1)C(=O)NCC1CC(O)C(n2ccc(=O)[nH]c2=O)O1 (mixture of isomers) [Compound 142, 1-[5′-[(2S,3S)-N^3-L-Alanyl-N^2-[N-[[α(S,R)-1-carboxy-phenmethyl]carbamoyl]-L-4-fluorophenylalanyl]-N^3-methyl-2,3-diaminobutyramidol-3′,5′-dideoxy-α-L-arabinofuranosyl]uracil] | 64 µg/mL | 512 µg/mL | 32 µg/mL | >512 µg/mL | 4 µg/mL | >512 µg/mL | >512 µg/mL | >512 µg/mL | 512 µg/mL | >512 µg/mL
CC(C(NC(=O)C(Cc1ccccc1)NC(=O)NC(Cc1c[nH]c2ccccc12)C(=O)O)C(=O)NCC1CC(O)C(n2ccc(=O)[nH]c2=O)O1)N(C)C(=O)C(N)CCCCN [Compound 147, 1-[5′-[(2S,3S)-N^2-[N-[[(1S)-1-Carboxy-2-indol-3-ylethyl]carbamoyl]-L-phenylalanyl]-N^3-L-lysinyl-N^3-methyl-2,3-diaminobutyramido]-3′,5′-dideoxy-α-L-arabinofuranosyl]uracil] | 16 µg/mL (≈ 18.9 µM) | >512 µg/mL | >512 µg/mL |  | >512 µg/mL | >512 µg/mL |  | >512 µg/mL | 32 µg/mL (≈ 37.8 µM) | >512 µg/mL
CC(C)C[C@H](NC(=O)N[C@@H](Cc1c[nH]c2ccccc12)C(=O)O)C(=O)N[C@H](C(=O)NC[C@H]1C[C@@H](O)[C@H](n2ccc(=O)[nH]c2=O)O1)[C@H](C)N(C)C(=O)[C@H](C)N [Compound 170, 1-[5′-[(2S,3S)-N^3-L-Alanyl-N^2-[N-[[(1S)-1-carboxy-2-indol-3-ylethyl)carbamoyl]-L-leucinyl]-N^3-methyl-2,3-diaminobutyramido]-3′,5′-dideoxy-α-L-arabinofuranosyl]uracil] | 4 µg/mL (≈ 5.29 µM) | 128 µg/mL (≈ 169 µM) | 1 µg/mL (≈ 1.32 µM) |  | 2 µg/mL (≈ 2.65 µM) | >512 µg/mL |  | >512 µg/mL | 64 µg/mL (≈ 84.7 µM) | >512 µg/mL
C[C@H](NC(=O)N[C@@H](Cc1c[nH]c2ccccc12)C(=O)O)C(=O)N[C@H](C(=O)NC[C@H]1C[C@@H](O)[C@H](n2ccc(=O)[nH]c2=O)O1)[C@H](C)N(C)C(=O)[C@@H](C)N [Compound 171, 1-[5′-[(2S,3S)-N^3-D-Alanyl-N^2-[N-[[(1S)-1-carboxy-2-indol-3-ylethyl]carbamoyl]-L-alanyl]-N^3-methyl-2,3-diaminobutyramido]-3′,5′-dideoxy-α-L-arabinofuranosyl]uracil] | 32 µg/mL (≈ 44.8 µM) | >512 µg/mL | 128 µg/mL (≈ 179 µM) |  | 16 µg/mL (≈ 22.4 µM) | >512 µg/mL |  | >512 µg/mL | 512 µg/mL (≈ 717 µM) | >512 µg/mL
C[C@H](N)C(=O)N(C)[C@@H](C)[C@H](NC(=O)[C@H](C)NC(=O)N[C@@H](Cc1c[nH]c2ccccc12)C(=O)O)C(=O)NC[C@@H]1C[C@@H](O)[C@@H](n2ccc(=O)[nH]c2=O)O1 [Compound 172, 1-[5′-[(2S,3S)-N^3-L-Alanyl-N^2-[N-[[(1S)-1-carboxy-2-indol-3-ylethyl]carbamoyl]-L-alanyl]-N^3-methyl-2,3-diaminobutyramido]-3′,5′-dideoxy-α-D-ribofuranosyl]uracil] | 4 µg/mL (≈ 5.6 µM) | 16 µg/mL (≈ 22.4 µM) | 16 µg/mL (≈ 22.4 µM) |  | 128 µg/mL (≈ 179 µM) | 512 µg/mL (≈ 717 µM) |  | >512 µg/mL | 64 µg/mL (≈ 89.7 µM) | >512 µg/mL
Dihydropacidamycin 1 [Compound 5] | 16 µg/mL | 512 µg/mL | 32 µg/mL |  | 8 µg/mL | >512 µg/mL |  | >512 µg/mL | 64 µg/mL | >512 µg/mL
